Assay results as given in patent publication US20240368157A1, “FORMS AND COMPOSITIONS OF A JAK2 INHIBITOR” (Ajax Therapeutics, Inc., priority 2023, published 2024).

Experiments:
[1] = Caco2 Permeability Assay; type: in vitro ADME; settings: human, Caco-2, pH 7.4; for Papp A→B at 2 h, 5 μM: apical to basolateral; for efflux ratio at 2 h, 5 μM: read-out: Efflux Ratio (ER)
Method: Preparation of Caco-2 Cells: 50 μL and 25 mL of cell culture medium are added to each well of a Transwell® insert and reservoir, respectively. Then, the HTS Transwell® plates are incubated at 37° C., 5% CO2 for 1 hour before cell seeding. Caco-2 cell cells are diluted to 6.86×10^5 cells/mL with culture medium, and 50 μL of cell suspension are dispensed into the filter well of the 96-well HTS Transwell® plate. Cells are cultivated for 14-18 days in a cell culture incubator at 37° C., 5% CO2, 95% relative humidity. Cell culture medium is replaced every other day, beginning no later than 24 hours after initial plating.
Preparation of Stock Solutions: 10 mM stock solutions of test compounds arc prepared in DMSO. The stock solutions of positive controls are prepared in DMSO at the concentration of 10 mM. Digoxin and propranolol are used as control compounds in this assay.
Assessment of Cell Monolayer Integrity: Medium is removed from the reservoir and each Transwell® insert and is replaced with prewarmed fresh culture medium. Transepithelial electrical resistance (TEER) across the monolayer is measured using Millicell Epithelial Volt-Ohm measuring system (Millipore, USA). The Plate is returned to the incubator once the measurement is done. The TEER value is calculated according to the following equation: TEER measurement (ohms)×Area of membrane (cm^2)=TEER value (ohm·cm^2). A TEER value greater than 230 ohm·cm^2 indicates a well-qualified Caco-2 monolayer.
Assay Procedure: The Caco-2 plate is removed from the incubator and washed twice with pre-warmed HBSS (10 mM HEPES, pH 7.4), and then incubated at 37° C. for 30 minutes. The stock solutions of control compounds are diluted in DMSO to get 1 mM solutions and then diluted with HBSS (10 mM HEPES, pH 7.4) to get 5 μM working solutions. The stock solutions of the test compounds are diluted in DMSO to get 1 mM solutions and then diluted with HBSS (10 mM HEPES and 4% BSA, pH 7.4) to get 5 μM working solutions. The final concentration of DMSO in the incubation system is 0.5%. To determine the rate of drug transport in the apical to basolateral direction. 75 μL of 5 μM working solutions of test compounds are added to the Transwell® insert (apical compartment) and the wells in the receiver plate (basolateral compartment) are filled with 235 μL of HBSS (10 mM HEPES and 4% BSA, pH 7.4). To determine the rate of drug transport in the basolateral to apical direction, 235 μL of 5 μM working solutions of test compounds are added to the receiver plate wells (basolateral compartment) and then the Transwell® inserts (apical compartment) are filled with 75 μL of HBSS (10 mM HEPES and 4% BSA, pH 7.4). […]

[2] = test system: JAK2-mediated pSTAT5 signaling in constitutively active essential thrombocytopenia cells carrying the V617F mutation; experiment: SET2-pSTAT5 Cellular Assay; type: cell-based; settings: Homo sapiens, SET-2, 4 hours
Method: This assay measures inhibition of JAK2-mediated pSTAT5 signaling in constitutively active essential thrombocytopenia cells carrying the V617F mutation. Cells are harvested from a flask into cell culture medium, and the number of cells is counted. The cells are diluted with culture medium and 100 μL of cell suspension (50000/well) is added into each well of a 96-well cell culture plate. A solution of test compound is added to the assay plate. The plates are covered with a lid and placed in a 37° C. 5% CO2 incubator for 4 hours. After 4 hours, the cells are spun, and the cell pellets are re-suspended with 100 μL cold PBS. Then, the cells are spun again at 4° C. and 4000 rpm for 5 min. PBS is aspirated, and 25 μL lysis buffer (with protease and phosphatase inhibitor cocktail) is added to each cell pellet. The cell lysate is shaken at 4° C. for 20 min to fully lyse the cells. The cell lysate is spun at 4° C. and 4000 rpm for 15 min, and then the supernatant is transferred into a new plate and stored at −80° C. Meso-scale discovery (MSD) is used to analyze plates as follows: a standard MSD plate is coated with capture antibody in PBS (40 μL/well) and is incubated at 4° C. overnight with shaking. […] MSD reading buffer (1×) is added to the plates (150 μL/well), and they are diluted from 4× with water. […]

| Papp A→B at 2 h, 5 μM [1] [×10⁻⁶ cm/s] | efflux ratio at 2 h, 5 μM [1] | IC50 [2] [nM] | Structure (SMILES) |
| --- | --- | --- | --- |
| 7 | 2 to 5 | < 125 | CN(C)C(=O)Nc1cc(Oc2cnc3nc(Nc4cc(C(F)(F)F)cn(C)c4=O)n(C)c3c2C#N)ccn1 [Compound 1, 3-(4-((7-cyano-1-methyl-2-((1-methyl-2-oxo-5-(trifluoromethyl)-1,2-dihydropyridin-3-yl)amino)-1H-imidazo[4,5-b]pyridin-6-yl)oxy)pyridin-2-yl)-1,1-dimethylurea] |
| 0.4 | 10 to 30 | 200 to 1000 | CCN1CCN(Cc2ccc(Nc3nc4ccc(Oc5ccnc(NC(C)=O)c5)cc4n3C)cc2C(F)(F)F)CC1 [Compound R-1, reference compound] |
